Laboratory results as given in US10231956B2, “3-(1H-pyrrolo[3,2-C]pyridin-2-YL)-1 H-pyrazolo[4,3-B]pyridines and therapeutic uses thereof” (Samumed, LLC, priority 2015, dated 2019).
pEC50: −log10 of the molar value.

Tests used:
Type in all cases: cell-based
SW480 colon cancer cells = assay: Cell viability assay (CellTiter-Blue) in SW480 colon cancer cells; settings: Homo sapiens; for pEC50: 96 h, four days, CellTiter-Blue
Procedure, shortened: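 Resazurin reduction (Ex 560/Em 590 nm, ~3 h reagent incubation) served as the viability read-out after SW480 cells were treated for four days at 37 °C. Doses ran from 10 μM down to 0.0045 μM in eight 1:3 steps. Curves fitted non-linearly for EC50, else % inhibition at 10 μM reported.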

[1] = tested on: primary human mesenchymal stem cells (hMSCs); assay: Induction of chondrogenesis in primary human mesenchymal stem cells (nodule count); settings: 144 h, 6 days; for Emax: TGF-β3 10 ng/mL as positive control, read-out: Max. Activity as % TGF-β3 activity; for EC50: concentration required to induce 50% levels of chondrogenesis vs TGF-β3, read-out: Conc (nM) of 50% TGF-β3 activity
Experimental: Representative compounds were screened using primary human mesenchymal stem cells (hMSCs) to determine their ability to induce chondrogenesis (process by which cartilage is developed).
Human Mesenchymal Stem Cell Culture: Primary human mesenchymal stem cells (hMSCs) were purchased from Lonza (Walkersville, Md.) and expanded in Mesenchymal Stem Cell Growth Media (Lonza). Cells between passage 3 and 6 were used for the experiments.
Compound Screening: Each compound was dissolved in DMSO as a 10 mM stock and used to prepare compound source plates. Serial dilution (1:3, 6-point dose-response curves from 2700 nM to 10 nM) and compound transfer was performed using the ECHO 550 (Labcyte, Sunnyvale, Calif.) into 96-well clear bottom assay plates (Greiner Bio-One) with appropriate DMSO backfill for a final DMSO concentration of 0.03%. hMSCs were plated at 20,000 cells/well in 250 μL/well Incomplete Chondrogenic Induction Medium (Lonza; DMEM, dexamethasone, ascorbate, insulin-transferrin-selenium [ITS supplement], gentamycin-amphotericin [GA-1000], sodium pyruvate, proline and L-glutamine). TGF-β3 (10 ng/mL) was used as a positive control for differentiation while negative control wells were treated with 75 nL DMSO for normalization and calculating EC50 values. Cells were incubated at 37° C. and 5% CO2 for 6 days. To image chondrogenic nodules, the cells were fixed using 4% formaldehyde (Electron Microscopy Sciences), and stained with 2 μg/mL Rhodamine B (Sigma-Aldrich) and 20 μM Nile Red (Sigma-Aldrich) [Johnson K., et. al, A Stem Cell-Based Approach to Cartilage Repair, Science, (2012), 336(6082), 717-721]. The nodules imaged (4 images per well at 4× magnification) by excitation at 531 nm and emission at 625 nm and quantified using the CellInsight CX5 (Thermo Scientific). Number of nodules in each well was normalized to the average of 3 DMSO treated wells on the same plate using Excel (Microsoft Inc.). The normalized averages (fold change over DMSO) of 3 replicate wells for each compound concentration were calculated. Due to solubility limitations of some of the compounds, curve fitting was incomplete leading to inaccurate EC50 determinations.
Using TGF-β3 as a positive control, the concentration of representative compounds required to induce 50% levels of chondrogenesis is reported. In addition, the maximum activity of each compound and the respective dose that each compound reached maximum chondrogenesis activity is reported.

IL-6 = IL-6 inhibition in LPS-stimulated THP-1 cells (HTRF); settings: Homo sapiens; for pEC50: LPS 500 ng/mL, 22 hours, IL6 HTRF

Compound	pEC50 (SW480 colon cancer cells)	Emax [1] [%]	pEC50 (IL-6)	EC50 [1] [nM]	inhibition at 10 µM (SW480 colon cancer cells; given for EC50 >10 μM, 10 μM, read-out: percent inhibition at 10 μM) [%]	inhibition at 10 µM (IL-6; given for EC50 >10 μM, LPS, IL6, 10 μM, read-out: percent inhibition at 10 μM) [%]
CN(C)Cc1cncc(-c2ccc3[nH]nc(-c4cc5c(-c6ccccc6F)nccc5[nH]4)c3n2)c1 [Compound 69, 1-(5-(3-(4-(2-Fluorophenyl)-1H-pyrrolo[3,2-c]pyridin-2-yl)-1H-pyrazolo [4,3-b]pyridin-5-yl)pyridin-3-yl)-N,N-dimethylmethanamine]	6.22	7	5.94	–	–	–
O=C(Nc1cncc(-c2ccc3[nH]nc(-c4cc5c(-c6ccccc6F)nccc5[nH]4)c3n2)c1)C1CC1 [Compound 76, N-(5-(3-(4-(2-Fluorophenyl)-1H-pyrrolo[3,2-c]pyridin-2-yl)-1H-pyrazolo [4,3-b]pyridin-5-yl)pyridin-3-yl)cyclopropanecarboxamide]	6.22	25	7.02	–	–	–
Fc1ccccc1-c1nccc2[nH]c(-c3n[nH]c4ccc(-c5cncc(CNCc6ccccc6)c5)nc34)cc12 [Compound 80, N-Benzyl-1-(5-(3-(4-(2-fluorophenyl)-1H-pyrrolo[3,2-c]pyridin-2-yl)-1H-pyrazolo[4,3-b]pyridin-5-yl)pyridin-3-yl)methanamine]	5.67	110	5.04	10	–	–
c1cncc(-c2ccc3[nH]nc(-c4cc5c(N6CCCCC6)nccc5[nH]4)c3n2)c1 [Compound 172, 3-(4-(Piperidin-1-yl)-1H-pyrrolo[3,2-c]pyridin-2-yl)-5-(pyridin-3-yl)-1H-pyrazolo[4,3-b]pyridine]	6.27	29	7.08	–	–	–
CN(C)Cc1cncc(-c2ccc3[nH]nc(-c4cc5c(N6CCCCC6)nccc5[nH]4)c3n2)c1 [Compound 181, N,N-Dimethyl-1-(5-(3-(4-(piperidin-1l-yl)-1H-pyrrolo[3,2-c]pyridin-2-yl)-1H-pyrazolo[4,3-b]pyridin-5-yl)pyridin-3-yl)methanamine]	5.57	23	5.66	–	–	–
CCCCC(=O)Nc1cncc(-c2ccc3[nH]nc(-c4cc5c(N6CCCCC6)nccc5[nH]4)c3n2)c1 [Compound 187, N-(5-(3-(4-(Piperidin-1-yl)-1H-pyrrolo[3,2-c]pyridin-2-yl)-1H-pyrazolo[4,3-b]pyridin-5-yl)pyridin-3-yl)pentanamide]	5.35	54	6.99	30	–	–
FC1(F)CCN(Cc2cncc(-c3ccc4[nH]nc(-c5cc6c(N7CCCCC7)nccc6[nH]5)c4n3)c2)C1 [Compound 194, 5-(5-((3,3-Difluoropyrrolidin-1-yl)methyl)pyridin-3-yl)-3-(4-(piperidin-1-yl)-1H-pyrrolo[3,2-c]pyridin-2-yl)-1H-pyrazolo[4,3-b]pyridine]	5.72	123	6.73	30	–	–
c1ccc(-c2ccc3[nH]nc(-c4cc5c(N6CCCCC6)nccc5[nH]4)c3n2)nc1 [Compound 196, 3-(4-(Piperidin-1-yl)-1H-pyrrolo[3,2-c]pyridin-2-yl)-5-(pyridin-2-yl)-1H-pyrazolo[4,3-b]pyridine]	5.55	102	5.74	100	–	–
Cc1ccncc1-c1ccc2[nH]nc(-c3cc4c(N5CCN(C)CC5)nccc4[nH]3)c2n1 [Compound 229, 3-(4-(4-Methylpiperazin-1l-yl)-1H-pyrrolo[3,2-c]pyridin-2-yl)-5-(4-methylpyridin-3-yl)-1H-pyrazolo[4,3-b]pyridine]	6.08	87	6.97	2700	–	–
CN1CCN(c2nccc3[nH]c(-c4n[nH]c5ccc(-c6cncc(CN7CCCCC7)c6)nc45)cc23)CC1 [Compound 239, 3-(4-(4-methylpiperazin-1-yl)-1H-pyrrolo[3,2-c]pyridin-2-yl)-5-(5-(piperidin-1-ylmethyl)pyridin-3-yl)-1H-pyrazolo[4,3-b]pyridine]	5.73	71	5.40	10	–	–
CN1CCN(c2nccc3[nH]c(-c4n[nH]c5ccc(-c6cncnc6)nc45)cc23)CC1 [Compound 251, 3-(4-(4-Methylpiperazin-1l-yl)-1H-pyrrolo[3,2-c]pyridin-2-yl)-5-(pyrimidin-5-yl)-1H-pyrazolo[4,3-b]pyridine]	5.95	56	6.54	100	–	–
c1cncc(-c2ccc3[nH]nc(-c4cc5cnccc5[nH]4)c3n2)c1 [Compound 256, 5-(Pyridin-3-yl)-3-(1H-pyrrolo[3,2-c]pyridin-2-yl)-1H-pyrazolo[4,3-b]pyridine]	6.79	119	7.14	900	–	–
CCNCc1cncc(-c2ccc3[nH]nc(-c4cc5cnccc5[nH]4)c3n2)c1 [Compound 258, N-((5-(3-(1H-Pyrrolo[3,2-c]pyridin-2-yl)-1H-pyrazolo[4,3-b]pyridin-5-yl)pyridin-3-yl)methyl)ethanamine]	5.78	99	6.34	2700	–	–
CN(C)Cc1cncc(-c2ccc3[nH]nc(-c4cc5cnccc5[nH]4)c3n2)c1 [Compound 265, 1-(5-(3-(1H-Pyrrolo[3,2-c]pyridin-2-yl)-1H-pyrazolo[4,3-b]pyridin-5-yl)pyridin-3-yl)-N,N-dimethylmethanamine]	6.04	119	6.06	30	–	–
FC1(F)CCN(Cc2cncc(-c3ccc4[nH]nc(-c5cc6cnccc6[nH]5)c4n3)c2)C1 [Compound 278, 5-(5-((3,3-Difluoropyrrolidin-1-yl)methyl)pyridin-3-yl)-3-(1H-pyrrolo[3,2-c]pyridin-2-yl)-1H-pyrazolo[4,3-b]pyridine]	7.06	134	7.04	300	–	–
c1cc2[nH]c(-c3n[nH]c4ccc(-c5cncnc5)nc34)cc2cn1 [Compound 279, 5-(Pyrimidin-5-yl)-3-(1H-pyrrolo[3,2-c]pyridin-2-yl)-1H-pyrazolo[4,3-b]pyridine]	5.83	53	5.95	2700	–	–
CC(C)CC(=O)Nc1cncc(-c2ccc3[nH]nc(-c4cc5c(-c6cc(F)cc(CNS(C)(=O)=O)c6)nccc5[nH]4)c3n2)c1 [Compound 478, N-(5-(3-(4-(3-Fluoro-5-(methylsulfonamidomethyl)phenyl)-1H-pyrrolo[3,2-c]pyridin-2-yl)-1H-pyrazolo[4,3-b]pyridin-5-yl)pyridin-3-yl)-3-methylbutanamide]	6.04	33	6.97	–	–	–
Cc1ccncc1-c1ccc2[nH]nc(-c3cc4c(-c5cc(F)cc(CNS(C)(=O)=O)c5)nccc4[nH]3)c2n1 [Compound 481, N-(3-Fluoro-5-(2-(5-(4-methylpyridin-3-yl)-1H-pyrazolo[4,3-b]pyridin-3-yl)-1H-pyrrolo[3,2-c]pyridin-4-yl)benzyl)methanesulfonamide]	5.98	98	7.35	10	–	–
CS(=O)(=O)NCc1cc(F)cc(-c2nccc3[nH]c(-c4n[nH]c5ccc(-c6cncc(NC(=O)Cc7ccccc7)c6)nc45)cc23)c1 [Compound 486, N-(5-(3-(4-(3-Fluoro-5-(methylsulfonamidomethyl)phenyl)-1H-pyrrolo[3,2-c]pyridin-2-yl)-1H-pyrazolo[4,3-b]pyridin-5-yl)pyridin-3-yl)-2-phenylacetamide]	< 5.00	110	< 5.00	10	8.8	28.5
CS(=O)(=O)NCc1cc(F)cc(-c2nccc3[nH]c(-c4n[nH]c5ccc(-c6cncc(NC(=O)C7CCCC7)c6)nc45)cc23)c1 [Compound 498, N-(5-(3-(4-(3-Fluoro-5-(methylsulfonamidomethyl)phenyl)-1H-pyrrolo[3,2-c]pyridin-2-yl)-1H-pyrazolo[4,3-b]pyridin-5-yl)pyridin-3-yl)cyclopentanecarboxamide]	5.70	50	6.79	900	–	–
